The results in this text go back to ChEMBL document CHEMBL1201862, “PubChem BioAssay data set” (2004).

The structures appear in SMILES notation.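 Interpolation was linear, between the two tested concentrations surrounding the appropriate level; five concentrations were tested over 48 hours in 96-well plates. At the GI50, growth is halved.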 Active and inactive are the calls of the source. Cut-off read from the data, not from the text of the source: active = GI50 up to about 1.1 µM and inactive = higher.

Among the test systems are SF-295; IGROV-1; HT-29; SF-268; ACHN; SF-539; OVCAR-8; HCT-15; CAKI-1; TK-10; A549; U-251; KM12; NCI-H522; M14; MOLT-4; HOP-92; SR; A498.
Holding throughout (assay): NCI tumour cell line growth inhibition, 48 h

In the case of `CSc1c(CC(=O)Nc2ccc(Cl)cc2)n(Cc2ccccc2)c2ccccc12`, the GI50 is 62.7 µM (inactive) with SF-295; 26.5 µM (inactive) in the test with IGROV-1; 39.4 µM (inactive) with HT-29; 12.9 µM (inactive) with SF-268; 24.7 µM (inactive) in the test with ACHN; 3 µM (inactive) in the test with SF-539. Besides, the GI50 is 12.3 µM (inactive) in the test with OVCAR-8; 30.5 µM in the test with HCT-15; 22.8 µM (inactive) in the test with CAKI-1; 16 µM (inactive) in the test on TK-10; 43.5 µM (inactive) with A549; 11.6 µM (inactive) with U-251. For the same compound, the GI50 was > 100 µM (inactive) in the test with KM12; 18.1 µM (inactive) in the test on NCI-H522; 58.2 µM (inactive) with M14; 43.1 µM (inactive) in the test with MOLT-4; 13.7 µM (inactive) with HOP-92; 23 µM (inactive) in the test with SR. Also, the GI50 with A498 was 8.26 µM (inactive).
With `COCc1nc2c(OC)c(-c3nc4ccc(N5CCN(C)CC5)cc4[nH]3)cc(OC)c2[nH]1`, the GI50 in the test on SF-295 is 21.6 µM (inactive); in the test on IGROV-1, 97.9 µM (inactive); in the test with HT-29, 31.5 µM (inactive); in the test with SF-268, > 100 µM (inactive); in the test on ACHN it was 65.9 µM (inactive); with SF-539 it was 20 µM (inactive). In addition, the GI50 is 60.7 µM (inactive) in the test on OVCAR-8; 56.1 µM with HCT-15; 41.7 µM (inactive) in the test on CAKI-1; 84.9 µM (inactive) in the test with TK-10; 48.9 µM (inactive) in the test with A549; 42 µM (inactive) in the test with U-251. In addition, the GI50 was 28.1 µM (inactive) in the test on KM12; 31.1 µM (inactive) with NCI-H522; 17.4 µM (inactive) in the test with M14; 41.1 µM (inactive) with MOLT-4; > 100 µM (inactive) in the test on HOP-92; 19.7 µM (inactive) in the test with SR. For the same compound, the GI50 in the test on A498 is > 100 µM (inactive).
`C/C(=N\C1CCCCC1)c1ccccc1O`: the GI50 in the test on SF-295, in the test with IGROV-1, in the test on HT-29, with SF-268, in the test on ACHN and in the test with SF-539 was > 100 µM (inactive) in each case. For the same compound, the GI50 is > 100 µM (inactive) in the test with OVCAR-8; more than 100 µM in the test on HCT-15; > 100 µM (inactive) with CAKI-1; > 100 µM (inactive) in the test with TK-10; > 100 µM (inactive) in the test on A549; > 100 µM (inactive) in the test with U-251. The GI50 in the test on KM12 is > 100 µM (inactive); in the test on NCI-H522, 34.2 µM (inactive); with M14, > 100 µM (inactive); with MOLT-4, > 100 µM (inactive); in the test on HOP-92, > 100 µM (inactive); with SR, > 100 µM (inactive). The GI50 in the test on A498 is > 100 µM (inactive).
Consider `O/N=C(/CC(O)(C(F)(F)F)C(F)(F)F)c1ccccc1`, for which the GI50 with SF-295, with IGROV-1, with HT-29, with SF-268, with ACHN and in the test on SF-539 was > 10 µM (inactive) throughout. In addition, the GI50 with OVCAR-8 is > 10 µM (inactive); in the test on HCT-15, more than 10 µM; in the test with CAKI-1 it was > 10 µM (inactive); in the test with TK-10 it was > 10 µM (inactive); in the test on A549, > 10 µM (inactive); in the test with U-251 it was > 10 µM (inactive). Besides, the GI50 in the test on KM12, with NCI-H522, with M14, in the test with MOLT-4, in the test with HOP-92 and in the test with SR was > 10 µM (inactive) throughout. The GI50 in the test on A498 is > 10 µM (inactive).
For the compound `CSc1n[nH]c2[nH]nc(C)c12`, the GI50 with SF-295, with IGROV-1, with HT-29, with SF-268, with ACHN and in the test on SF-539 was > 100 µM (inactive) each time. In addition, the GI50 with OVCAR-8 was > 100 µM (inactive); in the test with HCT-15, more than 100 µM; in the test on CAKI-1 it was > 100 µM (inactive); in the test on TK-10 it was > 100 µM (inactive); with A549 it was > 100 µM (inactive); in the test with U-251, > 100 µM (inactive). Besides, the GI50 is > 100 µM (inactive) in the test on KM12; > 100 µM (inactive) with NCI-H522; > 100 µM (inactive) in the test on M14; 8.53 µM (inactive) in the test on MOLT-4; > 100 µM (inactive) in the test with HOP-92; 5.22 µM (inactive) in the test with SR. The GI50 in the test with A498 was > 100 µM (inactive).
As to `COc1ccc2nc3c([N+](=O)[O-])ccc4c3c(c2c1)N=CN4CCN(C)C`, the GI50 is 5.57 µM (inactive) in the test with SF-295; 2.47 µM (inactive) in the test on IGROV-1; 2.52 µM (inactive) in the test with HT-29; 4.09 µM (inactive) in the test with SF-268; 3.66 µM (inactive) with ACHN; 3.28 µM (inactive) in the test on SF-539. In addition, the GI50 was 2.82 µM (inactive) in the test on OVCAR-8; 2.57 µM with HCT-15; 1.36 µM (inactive) in the test on CAKI-1; 6.34 µM (inactive) with TK-10; 3.44 µM (inactive) in the test with A549; 5.07 µM (inactive) in the test with U-251. Besides, the GI50 in the test with KM12 is 3.86 µM (inactive); in the test on NCI-H522 it was 2.03 µM (inactive); in the test with M14, 4.8 µM (inactive); with MOLT-4 it was 2.04 µM (inactive); in the test with HOP-92, 5.06 µM (inactive); in the test with SR, 0.168 µM (active). Moreover, in the test with A498, the GI50 was 4.16 µM (inactive).
Take `CO[C@H]1[C@@H](O)[C@@H](C)O[C@@H](O[C@H]2CC[C@@]3(C)[C@H](CC[C@@H]4[C@@H]3CC[C@]3(C)[C@@H](C5=CC(=O)OC5)CC[C@]43O)C2)[C@@H]1O` [ODOROSIDE H]: the GI50 was 0.00516 µM (active) with SF-295; 0.00498 µM (active) in the test on IGROV-1; 0.00573 µM (active) with HT-29; 0.00422 µM (active) in the test with SF-268; 0.00304 µM (active) in the test on ACHN; 0.00468 µM (active) in the test with SF-539. The GI50 in the test with OVCAR-8 is 0.00661 µM (active); in the test on HCT-15, 0.00766 µM; with CAKI-1 it was 0.0048 µM (active); in the test on TK-10, 0.00336 µM (active); in the test on A549, 0.00288 µM (active); in the test on U-251 it was 0.00836 µM (active). Further, the GI50 in the test with KM12 is 0.0112 µM (active); in the test on NCI-H522, < 0.0025 µM (active); with M14, 0.0137 µM (active); with MOLT-4, < 0.0025 µM (active); with HOP-92, 0.0127 µM (active); in the test on SR, 0.00304 µM (active). The GI50 in the test with A498 was 0.0787 µM (active).
For `CCCCCCCCCCCCCCCCNc1nc(=O)n(C2OC(C)C(O)C2O)cc1F` (stereo unspecified), the GI50 in the test with SF-295 is 20.8 µM (inactive); in the test on IGROV-1 it was 17.6 µM (inactive); in the test on HT-29 it was 17.2 µM (inactive); with SF-268 it was 20 µM (inactive); with ACHN it was 15.5 µM (inactive); in the test with SF-539, 18.2 µM (inactive). The GI50 in the test on OVCAR-8 was 21.8 µM (inactive); with HCT-15, 14.9 µM; in the test with CAKI-1, 21.1 µM (inactive); with TK-10 it was 16.8 µM (inactive); with A549 it was 23.1 µM (inactive); in the test on U-251, 23.7 µM (inactive). Besides, the GI50 is 17.4 µM (inactive) with KM12; 18.7 µM (inactive) in the test on NCI-H522; 17.2 µM (inactive) with M14; 20.2 µM (inactive) with MOLT-4; 22.9 µM (inactive) with HOP-92; 23.9 µM (inactive) in the test with SR. Also, the GI50 with A498 was 19.5 µM (inactive).
For the compound `CN1CC2=C(OC(N)=C(C#N)C2c2cccs2)/C(=C/c2cccs2)C1` (stereo unspecified), the GI50 is 11.6 µM (inactive) in the test on SF-295; 15.5 µM (inactive) with IGROV-1; 12.7 µM (inactive) with HT-29; 13.5 µM (inactive) with SF-268; 2.43 µM (inactive) in the test with ACHN; 48.8 µM (inactive) in the test on SF-539. Moreover, the GI50 is 6.44 µM (inactive) in the test with OVCAR-8; 15.5 µM in the test with HCT-15; 38.8 µM (inactive) with CAKI-1; > 51.2 µM (inactive) with TK-10; 8.3 µM (inactive) in the test with A549; 8.59 µM (inactive) with U-251. The GI50 in the test with KM12 is 9.12 µM (inactive); in the test with NCI-H522, 7.94 µM (inactive); in the test on M14, 13.1 µM (inactive); in the test on MOLT-4 it was 2.43 µM (inactive); in the test with HOP-92, 2.09 µM (inactive); with SR, 4.17 µM (inactive). Also, the GI50 in the test on A498 was 21.8 µM (inactive).
`CN1CCN(Cn2nc(-c3ccccc3)n(/N=C/c3ccc(-c4ccc(Cl)cc4Cl)o3)c2=S)CC1`: the GI50 with SF-295 is 11.4 µM (inactive); in the test on IGROV-1, 8.97 µM (inactive); in the test with HT-29, 12.3 µM (inactive); with SF-268, 5.83 µM (inactive); with SF-539 it was 13.5 µM (inactive); in the test on OVCAR-8 it was 8.45 µM (inactive). Also, the GI50 in the test with HCT-15 was 4.18 µM; in the test with CAKI-1 it was 7.36 µM (inactive); in the test with TK-10, 15.1 µM (inactive); in the test with U-251 it was 5.25 µM (inactive); in the test with KM12, 9.73 µM (inactive); with NCI-H522 it was 28.2 µM (inactive). Moreover, the GI50 was 10.8 µM (inactive) in the test with M14; 0.0713 µM (active) in the test on MOLT-4; 8.95 µM (inactive) in the test on HOP-92; 1.51 µM (inactive) with SR; 26 µM (inactive) in the test with A498.
In the case of `CN(C)c1ccc(-c2ccc(N(C)C)c3n[se]nc23)c2n[se]nc12`, the GI50 in the test with SF-295, with IGROV-1, in the test on HT-29, with SF-268, in the test on ACHN and with SF-539 was > 100 µM (inactive) in each case. The GI50 in the test on OVCAR-8 was > 100 µM (inactive); with HCT-15, more than 100 µM; with CAKI-1, > 100 µM (inactive); in the test with TK-10, > 100 µM (inactive); with A549 it was > 100 µM (inactive); in the test on U-251, > 100 µM (inactive). The GI50 in the test with KM12, with NCI-H522, in the test on MOLT-4, in the test with HOP-92, in the test on SR and with A498 was > 100 µM (inactive) each time.
